System: MCF-7/ADR drug resistant cell line
Assay: IC50 of DOX against drug-resistant cell line
Assay type: cell-based
Settings: ratio MCF-7/ADR to MCF-7

COc1cccc2c1C(=O)c1c(O)c3c(c(O)c1C2=O)C[C@@](O)(C(=O)CO)C[C@@H]3O[C@H]1C[C@H](N)[C@H](O)[C@H](C)O1 [DOX, doxorubicin]
IC50 in MCF-7/ADR cells relative to MCF-7 cells: 108.07 fold

Source: publication PMC8965496, “Combating multidrug resistance and metastasis of breast cancer by endoplasmic reticulum stress and cell-nucleus penetration enhanced immunochemotherapy” (Theranostics, 2022)
